# Experimental data as given in ChEMBL document CHEMBL1201862, “PubChem BioAssay data set” (2004).
#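 Compound exposure: 48 hours, 5 concentrations, 96-well plates. The concentration for 50% growth inhibition is given as GI50.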 Calls of active or inactive are those of the source. Rule as the data show it: active = GI50 up to about 1.1 µM and inactive = higher.
# Key:
# Assay in all cases: NCI tumour cell line growth inhibition, 48 h
# Hs-578T = system: Hs-578T
# OVCAR-4 = system: OVCAR-4
# SK-OV-3 = system: SK-OV-3
# NCI-H23 = system: NCI-H23
# SK-MEL-2 = system: SK-MEL-2
# BT-549 = system: BT-549
# SK-MEL-28 = system: SK-MEL-28
# COLO 205 = system: COLO 205
# OVCAR-5 = system: OVCAR-5
# OVCAR-3 = system: OVCAR-3
# SW-620 = system: SW-620
# RPMI-8226 = system: RPMI-8226
# UACC-257 = system: UACC-257
# HCT-116 = system: HCT-116
# RXF 393 = system: RXF 393
# K562 = system: K562
# EKVX = system: EKVX
# MOLT-4 = system: MOLT-4
# HCC 2998 = system: HCC 2998
# MDA-N = system: MDA-N
SMILES,GI50 (Hs-578T),GI50 (OVCAR-4),GI50 (SK-OV-3),GI50 (NCI-H23),GI50 (SK-MEL-2),GI50 (BT-549),GI50 (SK-MEL-28),GI50 (COLO 205),GI50 (OVCAR-5),GI50 (OVCAR-3),GI50 (SW-620),GI50 (RPMI-8226),GI50 (UACC-257),GI50 (HCT-116),GI50 (RXF 393),GI50 (K562),GI50 (EKVX),GI50 (MOLT-4),GI50 (HCC 2998),GI50 (MDA-N)
COc1ccc(/C=C2\N=C(SC)N(C)C2=O)cc1,22.8 µM (inactive),39.6 µM (inactive),97.9 µM (inactive),> 100 µM (inactive),> 100 µM (inactive),> 100 µM (inactive),> 100 µM (inactive),94.6 µM (inactive),95.7 µM (inactive),46.1 µM (inactive),80.2 µM (inactive),50 µM (inactive),> 100 µM (inactive),75.2 µM (inactive),> 100 µM (inactive),50.9 µM (inactive),,,,
CC(C)CC12CC3CCC(CNC1=O)C32C (centres undefined),,> 100 µM (inactive),> 100 µM (inactive),> 100 µM (inactive),> 100 µM (inactive),,> 100 µM (inactive),> 100 µM (inactive),96.8 µM (inactive),> 100 µM (inactive),> 100 µM (inactive),49.9 µM (inactive),> 100 µM (inactive),78.9 µM (inactive),> 100 µM (inactive),43.5 µM (inactive),> 100 µM (inactive),40.5 µM (inactive),> 100 µM (inactive),
C#C[C@@]1(O)CCCC2=CC3(CC[C@]21C)SCCS3,> 100 µM (inactive),> 100 µM (inactive),> 100 µM (inactive),> 100 µM (inactive),> 100 µM (inactive),,> 100 µM (inactive),> 100 µM (inactive),> 100 µM (inactive),> 100 µM (inactive),> 100 µM (inactive),> 100 µM (inactive),> 100 µM (inactive),> 100 µM (inactive),> 100 µM (inactive),> 100 µM (inactive),> 100 µM (inactive),> 100 µM (inactive),> 100 µM (inactive),> 100 µM (inactive)
CC(/C=C/C(=O)c1sc(C(N)=S)nc1C)=C\c1ccccc1,,> 100 µM (inactive),> 100 µM (inactive),> 100 µM (inactive),> 100 µM (inactive),,> 100 µM (inactive),54 µM (inactive),> 100 µM (inactive),> 100 µM (inactive),,19.3 µM (inactive),> 100 µM (inactive),> 10 µM (inactive),> 100 µM (inactive),> 100 µM (inactive),> 100 µM (inactive),> 100 µM (inactive),> 100 µM (inactive),
CC/C(=N\NS(=O)(=O)c1ccccc1)c1ccccc1,,> 100 µM (inactive),> 100 µM (inactive),> 100 µM (inactive),> 100 µM (inactive),,> 100 µM (inactive),> 100 µM (inactive),> 100 µM (inactive),> 100 µM (inactive),> 100 µM (inactive),> 100 µM (inactive),> 100 µM (inactive),> 100 µM (inactive),> 100 µM (inactive),> 100 µM (inactive),> 100 µM (inactive),> 100 µM (inactive),> 100 µM (inactive),
COc1cc2c(/C=C3/C(=O)Nc4ccc(O)cc43)c(Cl)n(Cc3ccccc3)c2cc1C,0.354 µM (active),4.2 µM (inactive),0.817 µM (active),0.618 µM (active),3.73 µM (inactive),,3.56 µM (inactive),1.04 µM (active),2.1 µM (inactive),0.234 µM (active),0.433 µM (active),0.687 µM (active),0.818 µM (active),0.421 µM (active),0.352 µM (active),0.583 µM (active),5.62 µM (inactive),1.13 µM (inactive),,
COc1ccc(/C=C/c2cc(OC)cc(OC)c2)cc1 [TRISMETHOXYRESVERATROL],,18.9 µM (inactive),4.14 µM (inactive),6.98 µM (inactive),6.07 µM (inactive),,3.82 µM (inactive),3.41 µM (inactive),14 µM (inactive),3.3 µM (inactive),4.98 µM (inactive),3.56 µM (inactive),4.62 µM (inactive),4.17 µM (inactive),3.05 µM (inactive),4.33 µM (inactive),> 22.4 µM (inactive),4.51 µM (inactive),9.79 µM (inactive),
COc1ccc2c(c1)C(N)CC2=O (centres undefined),> 100 µM (inactive),> 100 µM (inactive),> 100 µM (inactive),> 100 µM (inactive),27 µM (inactive),> 100 µM (inactive),> 100 µM (inactive),> 100 µM (inactive),> 100 µM (inactive),> 100 µM (inactive),> 100 µM (inactive),> 100 µM (inactive),> 100 µM (inactive),> 100 µM (inactive),19 µM (inactive),> 100 µM (inactive),> 100 µM (inactive),> 100 µM (inactive),> 100 µM (inactive),
N#Cc1nc(CN2C(=O)c3ccccc3C2=O)oc1N,> 100 µM (inactive),> 100 µM (inactive),> 100 µM (inactive),,> 100 µM (inactive),,> 100 µM (inactive),> 100 µM (inactive),> 100 µM (inactive),> 100 µM (inactive),> 100 µM (inactive),> 100 µM (inactive),> 100 µM (inactive),> 100 µM (inactive),> 100 µM (inactive),> 100 µM (inactive),,> 100 µM (inactive),> 100 µM (inactive),> 100 µM (inactive)
COC1=CC23CCCN2CCc2cc4c(cc2C3C1O)OCO4 (centres undefined),82 µM (inactive),44.6 µM (inactive),27 µM (inactive),62.8 µM (inactive),54.2 µM (inactive),> 100 µM (inactive),> 100 µM (inactive),24.5 µM (inactive),> 100 µM (inactive),,66.1 µM (inactive),,> 100 µM (inactive),44.5 µM (inactive),,> 10 µM (inactive),52.5 µM (inactive),66.7 µM (inactive),70.3 µM (inactive),
O=C1CCC(=O)C1=NNc1cc(Cl)cc(Cl)c1,,> 100 µM (inactive),> 100 µM (inactive),> 100 µM (inactive),> 100 µM (inactive),,> 100 µM (inactive),36.6 µM (inactive),> 100 µM (inactive),26.2 µM (inactive),> 100 µM (inactive),32.7 µM (inactive),> 100 µM (inactive),76.4 µM (inactive),> 100 µM (inactive),> 100 µM (inactive),> 100 µM (inactive),53.8 µM (inactive),> 100 µM (inactive),
CN(C)c1ccc(/C=c2\sc3nnc(-c4ccco4)n3c2=O)cc1,,> 100 µM (inactive),> 100 µM (inactive),> 100 µM (inactive),> 100 µM (inactive),,> 100 µM (inactive),> 100 µM (inactive),> 100 µM (inactive),> 100 µM (inactive),> 100 µM (inactive),> 100 µM (inactive),16.7 µM (inactive),> 100 µM (inactive),> 100 µM (inactive),> 100 µM (inactive),> 100 µM (inactive),> 100 µM (inactive),> 100 µM (inactive),
COc1cc2c(oc(=O)c3c4oc([Si](C)(C)C)cc4cc(OC)c23)c2cccc(O)c12,,> 100 µM (inactive),> 100 µM (inactive),> 100 µM (inactive),> 100 µM (inactive),,> 100 µM (inactive),> 100 µM (inactive),> 100 µM (inactive),> 100 µM (inactive),> 100 µM (inactive),> 100 µM (inactive),> 100 µM (inactive),> 100 µM (inactive),> 100 µM (inactive),> 100 µM (inactive),> 100 µM (inactive),> 100 µM (inactive),> 100 µM (inactive),
O=C1Cc2c([nH]c3ccccc23)-c2cc(Br)ccc2N1,,> 100 µM (inactive),> 100 µM (inactive),> 100 µM (inactive),> 100 µM (inactive),,> 100 µM (inactive),> 100 µM (inactive),> 100 µM (inactive),> 100 µM (inactive),> 100 µM (inactive),> 100 µM (inactive),> 100 µM (inactive),> 100 µM (inactive),> 100 µM (inactive),> 100 µM (inactive),> 100 µM (inactive),> 100 µM (inactive),> 100 µM (inactive),
C=C(C)CCN(C(=O)OC(C)(C)C)c1cc(C(C)C)co1,,59.2 µM (inactive),> 100 µM (inactive),54 µM (inactive),28.5 µM (inactive),12.2 µM (inactive),> 100 µM (inactive),58.2 µM (inactive),> 100 µM (inactive),40.5 µM (inactive),56 µM (inactive),20.2 µM (inactive),34 µM (inactive),47.9 µM (inactive),,34.5 µM (inactive),45.1 µM (inactive),30.3 µM (inactive),52 µM (inactive),95.7 µM (inactive)
COC(=O)C(=O)C(C(=O)C=C(C)C)C(=O)C(=O)Nc1ccc(C)cc1C (centres undefined),,> 100 µM (inactive),> 100 µM (inactive),> 100 µM (inactive),> 100 µM (inactive),,> 100 µM (inactive),> 100 µM (inactive),> 100 µM (inactive),> 100 µM (inactive),> 100 µM (inactive),> 100 µM (inactive),> 100 µM (inactive),> 100 µM (inactive),> 100 µM (inactive),> 100 µM (inactive),> 100 µM (inactive),> 100 µM (inactive),> 100 µM (inactive),
